# Results reported in paper PMC11933534, “Favipiravir induces HuNoV viral mutagenesis and infectivity loss with clinical improvement in immunocompromised patients” (Clinical Immunology (Orlando, Fla.), 2024).
# Where two headings read alike, the source gives them in different places.
# Experiments:
# HuNoV [1] = system: HuNoV; set-up: method as in PMID 30485769; conditions: P2 (CVID); favipiravir 1200 mg 12-hourly, three courses; cited from earlier work
# HuNoV [2] = assay: Infectivity of P1 stool-sample HuNoV in zebrafish larvae (fold increase, ID50); format: in vivo
# Procedure: Human stool samples, positive for HuNoV, were obtained from the Great Ormond Street Hospital for Children (United Kingdom) and the University Hospital of Leuven (Belgium). An aliquot of 100 mg of each stool sample was re-suspended in 1 mL of sterile PBS, thoroughly vortexed, and centrifuged (5 min, 1000 g), supernatant was harvested and stored at −80 °C. This virus suspension was used for RNA extractions, quantification by RT-qPCR and injections in the zebrafish larvae. HuNoV RNA was extracted from 100 μL of PBS suspension using the Direct-zol RNA kit (Zymo Research, Irvine, CA, USA), according to the manufacturer's protocol. The original concentrations of the stool samples were as followed: SS A: 5.52*10^9 copies/g stool, SS B: 1.34*10^11 copies/g stool, SS C: 2.07*10^11 copies/g stool, SS D: 3.07*10^10 copies/g stool, SS E: 1.23*10^12 copies/g stool, SS F: 3.12*10^11 copies/g stool and GII.4 Sydney[P16] (in house collection KU Leuven): 1.46*10^10 copies/g stool.
# Zebrafish larvae were anesthetized and positioned as described previously, in short: zebrafish larvae of 3 days post fertilization were anesthetized and transferred to an agarose mold to position them on their dorsal side with the yolk facing upward. In every experiment, the injection needle was calibrated to ensure the precision of the injection volume. Microinjection was performed using an M3301R Manual Micromanipulator (WPI, Friedberg, Germany) and a FemtoJet 4i pressure microinjector (Eppendorf, Hamburg, Germany). Compound-treated zebrafish larvae received a 1 nL (1.5 nL in case of the combination treatment) injection of compound in the pericardial cavity, while negative control zebrafish were injected with an equal volume of DMSO. Subsequently, the zebrafish larvae received an injection of 3 nL virus in the yolk. After both injections, zebrafish larvae were transferred to 6-well plates with Danieau's solution and further maintained in an incubator with a 14/10 h light/dark cycle at 32 °C.
# Zebrafish larvae were homogenized (Precellys 24, Bertin Technologies, Montigny-le-Bretonneux, France), the homogenates were cleared by centrifugation (5 min, 9000 g), and RNA was extracted using the Direct-zol RNA kit (Zymo Research, Irvine, CA, USA), according to the manufacturer's protocol. RNA levels were quantified with a one-step RT-qPCR (iTaq Universal Probes One-Step Kit, Bio-Rad, Hercules, CA, USA) as previously described.
# To start, all stool samples were brought to the same theoretical inoculum (± 1000 viral RNA copies/3 nL injection volume) by dilution with PBS. To compare the viral infectivity between different stool samples, multiple methods were used; A) calculating the fold increase by taking the input based on the viral load of P1's stool samples and the amount of viral RNA copies/zebrafish at the peak of replication into account which are both quantified by RT-qPCR and B) determining the 50% infectious dose for each stool sample based on a well-established method adapted to the zebrafish replication model by diluting the collected stool samples to evaluate at which dilution the infectivity is lost.
# HuNoV [3] = assay: Clinical response of immunocompromised patients with chronic HuNoV infection; format: in vivo, human
# Procedure: The Drugs and Therapeutics Committees at Great Ormond Street Hospital for Children, Great North Children's Hospital and Royal Free London NHS Trust approved treatment with favipiravir +/− nitazoxanide in four immunocompromised patients with life-threatening/severe chronic HuNoV infections. After obtaining informed consent, microbiological and pharmacological monitoring was performed. Informed consent was also obtained for microbiological monitoring in 2 untreated patients with HuNoV infections. Residual diagnostic viral samples were released for whole-genome sequencing through the UCL/UCLH Pathogen Biobank National Research Ethics Service Committee London Fulham (reference: [12]/LO/1089). For P1 specifically, residual stool samples were released for in vivo infectivity evaluation in the zebrafish model with research ethics approval from London Bloomsbury Research Ethics Committee (reference: 07/Q0508/43). This allows the use of pseudonymised residual diagnostic samples for research. An additional stool sample positive for HuNoV from the existing collection of samples of the University Hospital of Leuven (Belgium) was used (reference: G-2021–4376). Informed consent was obtained from the patient. […]
# HuNoV [4] = system: HuNoV; set-up: method as in PMID 30485769; conditions: P2; favipiravir 1200 mg 12-hourly, three courses; cited from earlier work
# zebrafish larvae = assay: Toxicity analysis in zebrafish larvae; format: in vivo; conditions: 25 ng favipiravir or 4 ng tizoxanide, drug administered alone
# Procedure: First, compounds were dissolved in 100% DMSO (spectroscopy grade). To determine the correct dose for pericardial injections in zebrafish larvae of all compounds (i.e. favipiravir, tizoxanide and their 1:1 combination), a weight-dependent conversion was applied. For this purpose, the optimized and increased clinical dose of 400 mg favipiravir TDS and 200 mg tizoxanide BD was used. To ensure the weight-converted dose was not toxic for zebrafish larvae of 3 days post fertilization, a toxicity analysis was performed. […] The following parameters were investigated: touch response, morphology, posture, oedema, signs of necrosis, swim bladder and heartbeat.
# HuNoV [5] = assay: Stool HuNoV viral load (RT-qPCR Ct) in treated patients; format: in vivo, human
# [6] = Adverse events during off-label treatment of patients; format: in vivo, human
# [7] = set-up: method as in PMID 30485769; conditions: P2; favipiravir 1200 mg 12-hourly; caused treatment interruptions; cited from earlier work
# mouse norovirus = system: mouse norovirus; set-up: method as in PMID 22809499; conditions: 95%CI: 35–43 μg/mL; cited from earlier work
structure (smiles),measurement,setting,value
NC(=O)c1nc(F)c[nH]c1=O [favipiravir],Clinical response,HuNoV [1],"Weight gain, reduced stool output, decreased adjunctive loperamide"
same,"Fold increase in viral RNA, 0 to 2 dpi","HuNoV [2]; P1 SS B, 2 days into favipiravir treatment (after 10 days ribavirin), ~1000 genome copies, pre-treatment SS A 321 ± 177",143 ± 76 fold
same,50% infectious dose (ID50),"HuNoV [2]; P1 SS B, 2 days into treatment, pre-treatment SS A 289",697 viral RNA copies/zebrafish
same,"Fold increase in viral RNA, 0 to 2 dpi","HuNoV [2]; P1 SS C, 125 days into favipiravir treatment, ~1000 genome copies, pre-treatment SS A 321 ± 177",53 ± 31 fold
same,50% infectious dose (ID50),"HuNoV [2]; P1 SS C, 125 days into treatment, pre-treatment SS A 289",461 viral RNA copies/zebrafish
same,50% infectious dose (ID50),"HuNoV [2]; P1 SS D, after a 2-month treatment gap",338 viral RNA copies/zebrafish
same,"Fold increase in viral RNA, 0 to 2 dpi","HuNoV [2]; P1 SS D, after a treatment gap of 2 months, ~1000 genome copies",177 ± 55 fold
same,"Fold increase in viral RNA, 0 to 2 dpi","HuNoV [2]; P1 SS E, 6 months after re-introduction at higher favipiravir dose",75 ± 21 fold
same,50% infectious dose (ID50),"HuNoV [2]; P1 SS E, after treatment reintroduction (higher dose)",880 viral RNA copies/zebrafish
same,"Fold increase in viral RNA, 0 to 2 dpi","HuNoV [2]; P1 SS F, 7 months after re-introduction at higher favipiravir dose",47 ± 16 fold
same,50% infectious dose (ID50),"HuNoV [2]; P1 SS F, after treatment reintroduction (higher dose)",1110 viral RNA copies/zebrafish
same,Increase in the 50% infectious dose in HuNoV shed during treatment,HuNoV [2]; P1 stool samples over one year of treatment,~1 log10
same,Clinical response,"HuNoV [3]; P3 (CID), favipiravir monotherapy","Weight gain, reduced stool output, improved enteral feeding"
same,Patient weight after treatment,"HuNoV [3]; P3, second course up to 12-hourly 800 mg, four months, from 28.9 kg",33.3 kg
same,Change in stool HuNoV viral load,HuNoV [4],"modest decrease in HuNoV VLs, but not viral clearance"
same,Toxicity in the zebrafish larval model,zebrafish larvae,did not show toxicity
same,Stool HuNoV viral load,"HuNoV [5]; P3, favipiravir 12-hourly 1200 mg, before treatment max Ct 21.2",30.9 Ct
same,Stool HuNoV viral load,"HuNoV [5]; P4, favipiravir 400 mg 8-hourly + nitazoxanide 200 mg 12-hourly, max Ct, before treatment max Ct 17.9",27.8 Ct
same,Adverse event,"[6]; P1, favipiravir 200 mg 8-hourly + nitazoxanide 200 mg 12-hourly, suspected to be drug-induced, several medications discontinued",conjugated hyperbilirubinaemia
same,Recurrence of conjugated hyperbilirubinaemia,"[6]; P1, restarted favipiravir 400 mg 8-hourly + nitazoxanide 200 mg 12-hourly",did not recur
same,Adverse event,"[6]; P3, favipiravir 12-hourly 400 mg increased to 800 mg, transaminitis did not recur",nail discolouration and frequent headaches
same,Adverse event,"[6]; P3, favipiravir 12-hourly 1200 mg, discontinued after one month",progressing transaminitis
same,Adverse event,"[6]; P4, after 2 months of favipiravir 400 mg 8-hourly + nitazoxanide, nail discolouration reversed after discontinuation",nail discolouration and intermittent jaundice
same,Adverse event,[7],recurring transaminitis of undetermined aetiology
same,EC50 for mouse norovirus in vitro,mouse norovirus,EC50 Favipiravir for mouse norovirus (39 μg/mL [35])
